The text below walks through data of BindingDB's records for doi:10.1016/j.bmc.2008.02.078 (University of Tokyo, 2008).

As a reminder, the IC50 is the concentration at which inhibition is half-maximal. Read a high IC50 as weaker potency in that assay.

The target in the assay is Alpha-glucosidase MAL32 (Saccharomyces cerevisiae (strain ATCC 204508 / S288c), UniProt P38158). Kind of assay: alpha-Glucosidase Inhibition Assay. To be noted: pH 7; 37 °C. How it is done: The alpha-glucosidase inhibitory activity of test compounds was determined in a 96-well plate format. The reaction mixture containing enzyme and chromogenic substrate in the presence or absence of test compounds were incubated, and the amount of released p-nitrophenol was measured based on the absorbance at 405 nm. The IC50 values were calculated from the dose-response curves.
Alpha-glucosidase MAL32, sequence (P38158 whole entry): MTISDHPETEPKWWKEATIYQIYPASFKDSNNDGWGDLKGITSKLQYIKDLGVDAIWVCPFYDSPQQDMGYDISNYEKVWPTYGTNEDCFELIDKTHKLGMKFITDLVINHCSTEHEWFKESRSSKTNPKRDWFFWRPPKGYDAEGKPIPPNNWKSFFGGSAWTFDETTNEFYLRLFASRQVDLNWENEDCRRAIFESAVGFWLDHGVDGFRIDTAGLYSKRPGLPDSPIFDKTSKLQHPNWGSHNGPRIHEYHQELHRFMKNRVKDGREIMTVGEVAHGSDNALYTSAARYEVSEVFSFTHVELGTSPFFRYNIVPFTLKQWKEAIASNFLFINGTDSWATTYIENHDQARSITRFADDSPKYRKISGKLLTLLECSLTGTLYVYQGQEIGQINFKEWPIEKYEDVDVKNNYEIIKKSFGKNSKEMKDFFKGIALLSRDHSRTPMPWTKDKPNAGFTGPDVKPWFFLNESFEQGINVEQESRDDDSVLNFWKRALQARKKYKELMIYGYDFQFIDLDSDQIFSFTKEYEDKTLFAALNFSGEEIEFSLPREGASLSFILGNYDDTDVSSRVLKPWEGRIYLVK
As for `CC(C)CC[C@@H](O)[C@@H](C)[C@H]1CCC2C3CC=C4C[C@@H](O)CC[C@]4(C)C3C[C@@H](C)C21` (stereo partly drawn) [(2R,5S,14S,16R)-14-[(2S,3R)-3-hydroxy-6-methylheptan-2-yl]-2,16-dimethyltetracyclo[8.7.0.0^{2,7}.0^{11,15}]heptadec-7-en-5-ol], it took 100 µM to reach half-maximal inhibition (IC50).

Consider `COc1ccc2c(c1)CCc1ccc(cc1)Oc1cccc(c1)CCc1ccc-2c(OC)c1` [5,25-dimethoxy-14-oxapentacyclo[20.2.2.2^{10,13}.1^{15,19}.0^{2,7}]nonacosa-1(24),2(7),3,5,10,12,15,17,19(27),22,25,28-dodecaene], for which the IC50 was > 30 µM.

As for `COc1ccc2cc1Oc1ccc(cc1)CCc1ccccc1-c1ccc(cc1)CC2` [16-methoxy-14-oxapentacyclo[20.2.2.2^{10,13}.1^{15,19}.0^{2,7}]nonacosa-1(24),2(7),3,5,10,12,15,17,19(27),22,25,28-dodecaene], the IC50 is > 100 µM.
